Test results published in patent US8119563B2, “N-substituted azacycles” (FMC Corporation, priority 2003, dated 2012).

Tested on: tobacco budworm (Heliothis virescens [Fabricius])
Test: surface-treated diet test, insecticidal activity against tobacco budworm
Assay type: in vivo
Parameters: mortality: concentration or dose not given beside the values
Details: 0.25 millimoles of candidate insecticide on the surface of the diet, second instar larvae, five-day exposure; for Percent Mortality / mortality: compared to total number of insects infested; for Percent Growth Inhibition / pest or weed control at 0.25 mmol/well: inhibition of insect weight relative to untreated controls; for mortality / pest or weed control at 0.25 mmol/well: Heliothis virescens, 120 h; for mortality: read-out: Percent Mortality; for pest or weed control at 0.25 mmol/well: read-out: Percent Growth Inhibition
Procedure: Candidate insecticides were evaluated for activity against the tobacco budworm (Heliothis virescens [Fabricius]) in a surface-treated diet test.
In this test one mL of molten (65-70° C.) wheat germ-based artificial diet was pipetted into each well of a four by six (24 well) multi-well plate (ID# 430345-15.5 mm dia.×17.6 mm deep; Corning Costar Corp., One Alewife Center, Cambridge, Mass. 02140). The diet was allowed to cool to ambient temperature before treatment with candidate insecticide.
For a determination of insecticidal activity, solutions of the candidate insecticides were prepared for testing using a Packard 204DT Multiprobe® Robotic System (Packard Instrument Company, 800 Research Parkway, Meriden, Conn. 06450), in which the robot first diluted a standard 50 millimolar DMSO solution of candidate insecticide with a 1:1 water/acetone solution (V/V) in a ratio of 1:7 stock solution to water/acetone. The robot subsequently pipetted 40 microliters of the so-prepared solution onto the surface of the diet in each of three wells in the 24 multi-well plate. The process was repeated with solutions of seven other candidate insecticides. Once treated, the contents of the multi-well plate were allowed to dry, leaving 0.25 millimoles of candidate insecticide on the surface of the diet, or a concentration of 0.25 millimolar. Appropriate untreated controls containing only DMSO on the diet surface were also included in this test.
For evaluations of the insecticidal activity of a candidate insecticide at varying rates of application, the test was established as described above using sub-multiples of the standard 50 millimolar DMSO solution of candidate insecticide. For example, the standard 50 millimolar solution was diluted by the robot with DMSO to give 5, 0.5, 0.05, 0.005, 0.0005 millimolar, or more dilute solutions of the candidate insecticide. In these evaluations there were six replicates of each rate of application placed on the surface of the diet in the 24 multi-well plate, for a total of four rates of application of candidate insecticide in each plate.
In each well of the test plate was placed one second instar tobacco budworm larvea, each weighing approximately five milligrams. After the larvae were placed in each well, the plate was sealed with clear polyfilm adhesive tape. The tape over each well was perforated to ensure an adequate air supply. The plates were then held in a growth chamber at 25° C. and 60% relative humidity for five days (light 14 hours/day).
After the five-day exposure period insecticidal activity for each rate of application of candidate insecticide was assessed as percent inhibition of insect weight relative to the weight of insects from untreated controls, and percent mortality when compared to the total number of insects infested.
The test compounds of formula I are identified by numbers that correspond to those in Table 1.

Row | SMILES | Percent Mortality | Percent Growth Inhibition | mortality | pest or weed control at 0.25 mmol/well
1 | CC(O)c1ccc(C(c2ccc(OC(F)(F)F)cc2)C2(O)CCN(Cc3ccc(Oc4ccccn4)cc3)CC2)cc1 (mixture of isomers) [Compound 287] | 100% | 100% | – | –
2 | CC1(C)C(C=C(Cl)C(F)(F)F)C1C(=O)[O-].OC1(C(c2ccc(C(F)(F)F)cc2)c2ccc(C(F)(F)F)cc2)CC[N+](O)(Cc2ccc(Oc3ccc(Cl)nn3)cc2)CC1 (mixture of isomers) [Compound 519] | 100% | 100% | – | –
3 | OC1(C(c2ccc(F)cc2)c2ccc(OC(F)(F)F)cc2)CCN(Cc2ccc(Oc3ccccn3)cc2)CC1 (racemic) [Compound 268] | 100% | 100% | – | –
4 | OC1(C(c2ccc(OC(F)F)cc2)c2ccc(OC(F)(F)F)cc2)CCN(Cc2ccc(Oc3ccccn3)cc2)CC1 (racemic) [Compound 269] | 100% | 100% | – | –
5 | OC(c1ccc(Cl)cc1)c1ccc(CN2CCC(O)(C(c3ccc(OC(F)(F)F)cc3)c3ccc(OC(F)(F)F)cc3)CC2)cc1 (racemic) [Compound 278] | 100% | 100% | – | –
6 | OC(c1ccc(CN2CCC(O)(C(c3ccc(OC(F)(F)F)cc3)c3ccc(OC(F)(F)F)cc3)CC2)cc1)c1ccccn1 (racemic) [Compound 282] | 100% | 100% | – | –
7 | CC(C)=CCCC(C)=CCON=Cc1ccc(C(c2ccc(OC(F)(F)F)cc2)C2(O)CCN(Cc3ccc(Oc4ccccn4)cc3)CC2)cc1 (racemic) [Compound 284] | 17% | 100% | – | –
8 | OC1(C(c2ccccc2)c2ccc(OC(F)(F)F)cc2)CCN(Cc2ccc(Oc3ccccn3)cc2)CC1 (racemic) [Compound 288] | 100% | 100% | – | –
9 | CC(=O)OC(c1ccc(Cl)cc1)c1ccc(CN2CCC(O)(C(c3ccc(OC(F)(F)F)cc3)c3ccc(OC(F)(F)F)cc3)CC2)cc1 (racemic) [Compound 289] | 100% | 100% | – | –
10 | OC1(C(c2ccc(OC(F)(F)F)cc2)c2ccc(C3OCCO3)cc2)CCN(Cc2ccc(Oc3ccccn3)cc2)CC1 (racemic) [Compound 295] | 100% | 100% | – | –
11 | OC1(C(c2ccccc2Cl)c2ccccc2Cl)CCN(Cc2ccc(Oc3ncccn3)cc2)CC1 [Compound 1] | 0% | 57% | – | –
12 | OC1(C(c2ccc(OC(F)(F)F)cc2)c2ccc(C(F)(F)F)cc2)CCN(Cc2ccc(Oc3ncccn3)cc2)CC1 (stereo not shown) [Compound 2] | 100% | 100% | – | –
13 | OC1(C(c2ccc(C(F)(F)F)cc2)c2cc(Cl)cc(Cl)c2)CCN(Cc2ccc(Oc3ncccn3)cc2)CC1 (stereo not shown) [Compound 3] | 100% | 100% | – | –
14 | OC1(C(c2ccc(Cl)c(F)c2)c2ccc(Cl)c(F)c2)CCN(Cc2ccc(Oc3ncccn3)cc2)CC1 [Compound 4] | 100% | 100% | – | –
15 | COc1cc(OC)cc(C(c2ccc(C(F)(F)F)cc2)C2(O)CCN(Cc3ccc(Oc4ncccn4)cc3)CC2)c1 (stereo not shown) [Compound 5] | 0% | 97% | – | –
16 | OC1(C(c2ccc(Cl)cc2)c2ccc(C(F)(F)F)cc2)CCN(Cc2ccc(Oc3ncccn3)cc2)CC1 (stereo not shown) [Compound 7] | 100% | 100% | – | –
17 | OC1(C(c2cccc(F)c2)c2cccc(F)c2)CCN(Cc2ccc(Oc3ncccn3)cc2)CC1 [Compound 8] | 0% | 41% | – | –
18 | OC1(C(c2ccc(C(F)(F)F)cc2)c2ccc(Cl)c(Cl)c2)CCN(Cc2ccc(Oc3ncccn3)cc2)CC1 (stereo not shown) [Compound 9] | 100% | 100% | – | –
19 | OC1(C(c2cc(F)cc(F)c2)c2cc(F)cc(F)c2)CCN(Cc2ccc(Oc3ncccn3)cc2)CC1 [Compound 10] | 0% | 50% | – | –

Row | SMILES | Percent Mortality | Percent Growth Inhibition | mortality | pest or weed control at 0.25 mmol/well
20 | OC1(C(c2ccc(C(F)(F)F)cc2)c2cc(F)cc(F)c2)CCN(Cc2ccc(Oc3ncccn3)cc2)CC1 (stereo not shown) [Compound 11] | 33% | 100% | – | –
21 | OC1(C(c2ccc(C(F)(F)F)cc2)c2cccc(F)c2)CCN(Cc2ccc(Oc3ncccn3)cc2)CC1 (stereo not shown) [Compound 12] | 0% | 100% | – | –
22 | OC1(C(c2ccc(C(F)(F)F)cc2)c2cc(Cl)ccc2Cl)CCN(Cc2ccc(Oc3ncccn3)cc2)CC1 (stereo not shown) [Compound 13] | 100% | 100% | – | –
23 | OC1(C(c2ccc(C(F)(F)F)cc2)c2cccc(Cl)c2)CCN(Cc2ccc(Oc3ncccn3)cc2)CC1 (stereo not shown) [Compound 14] | 100% | 100% | – | –
24 | OC1(C(c2ccc(C(F)(F)F)cc2)c2ccc(Cl)cc2Cl)CCN(Cc2ccc(Oc3ncccn3)cc2)CC1 (stereo not shown) [Compound 15] | 100% | 100% | – | –
25 | OC1(C(c2ccc(C(F)(F)F)cc2)c2ccc(C(F)(F)F)cc2)CCN(Cc2ccc(Oc3ncccn3)cc2)CC1 [Compound 16] | 100% | 100% | – | –
26 | OC1(C(c2ccc(C(F)(F)F)cc2)c2ccc(F)c(F)c2)CCN(Cc2ccc(Oc3ncccn3)cc2)CC1 (stereo not shown) [Compound 17] | 83% | 100% | – | –
27 | OC1(C(c2ccc(C(F)(F)F)cc2)c2ccccc2Cl)CCN(Cc2ccc(Oc3ncccn3)cc2)CC1 (stereo not shown) [Compound 18] | 100% | 100% | – | –
28 | OC1(C(c2ccc(OC(F)(F)F)cc2)c2ccc(OC(F)(F)F)cc2)CCN(Cc2ccc(Oc3ncccn3)cc2)CC1 [Compound 19, 4-{bis[4-(trifluoromethoxy)phenyl]methyl}-1-[(4-pyrimidin-2-yloxyphenyl)methyl]piperidin-4-ol] | – | – | 100% | 100%
29 | OC1(C(c2ccc(OC(F)(F)F)cc2)c2ccc(OC(F)(F)F)cc2)CCN(Cc2ccc(-c3ncccn3)cc2)CC1 [Compound 20] | 100% | 100% | – | –
30 | OC1(C(c2ccc(OC(F)(F)F)cc2)c2ccc(OC(F)(F)F)cc2)CCN(Cc2ccc(Oc3ccccn3)cc2)CC1 [Compound 21, 4-{bis[4-(trifluoromethoxy)phenyl]methyl}-1-[(4-(2-pyridyloxy)phenyl)methyl]piperidin-4-ol] | – | – | 100% | 100%
31 | OC1(C(c2ccc(C(F)(F)F)cc2)c2ccc(C(F)(F)F)cc2)CCN(Cc2ccc(Oc3ccccn3)cc2)CC1 [Compound 22] | 100% | 100% | – | –
32 | CCn1nnc(-c2ccc(CN3CCC(O)(C(c4ccc(Cl)cc4)c4ccc(Cl)cc4)CC3)cc2)n1 [Compound 23] | 100% | 100% | – | –
33 | CCn1nnc(-c2ccc(CN3CCC(O)(C(c4cccc(Cl)c4)c4cccc(Cl)c4)CC3)cc2)n1 [Compound 24] | 0% | 98% | – | –
34 | CCn1nnc(-c2ccc(CN3CCC(O)(C(c4ccc(OC(F)(F)F)cc4)c4ccc(OC(F)(F)F)cc4)CC3)cc2)n1 [Compound 25] | 100% | 100% | – | –
35 | CCn1nnc(-c2ccc(CN3CCC(O)(C(c4ccc(Cl)c(Cl)c4)c4ccc(Cl)c(Cl)c4)CC3)cc2)n1 [Compound 26] | 100% | 100% | – | –
36 | CCn1nnc(-c2ccc(CN3CCC(O)(C(c4ccc(C(F)(F)F)cc4)c4ccc(C(F)(F)F)cc4)CC3)cc2)n1 [Compound 27] | 100% | 100% | – | –
37 | CCON=Cc1ccc(CN2CCC(O)(C(c3ccc(OC(F)(F)F)cc3)c3ccc(OC(F)(F)F)cc3)CC2)cc1 [Compound 28] | 100% | 100% | – | –
38 | CC(C)OC(=O)Nc1ccc(CN2CCC(O)(C(c3ccc(OC(F)(F)F)cc3)c3ccc(OC(F)(F)F)cc3)CC2)cc1 [Compound 29] | 100% | 100% | – | –
